Source: US20210371895A1, “BACTERIAL RESPONSE” (BioFire Diagnostics, LLC, priority 2018, published 2021)

Columns and labels:
[1] = test system: lasI; assay: Benchtop RT-PCR Cp of lasI transcript, strains S1/R1 with ciprofloxacin; assay type: cell-based, P. aeruginosa; details: 15 μg/mL Ciprofloxacin for 10 minutes, cDNA 1:100 dilution
Method: (§1) P. aeruginosa, two strains: one that is resistant and the other susceptible. • S1=susceptible to Ciprofloxacin • R1=resistant to Ciprofloxacin
(§2) In this example, each strain (S1 and R1) was grown to 0.5 OD600 (-1×10^8 CFU/mL) and each was treated with or without 15 μg/mL of Ciprofloxacin for 10 minutes (two strains, each +/− antibiotic, provides four test conditions). It is understood that the OD and antibiotic incubation time are illustrative only and that other concentrations and times may be used. cDNA was generated by extracting on Magnapure using TNA kit, following bacterial lysis protocol, quantifying using Qubit RNA HS Assay Kit (Q32852), genomic DNA removed and cDNA generated using Maxima H Minus cDNA Kit with dsDNAse (M1682).
For some of these genes, a similar ΔCp between susceptible and resistant strains was found both with and without the presence of antibiotics. Such genes are referred to as “generic antibiotic resistance genes” as they distinguish between susceptible and resistant strains even in the absence of antibiotics. Several of these generic antibiotic resistance genes are in the quorum sensing pathway or the iron uptake pathway, while the pathway for several others are unknown. These genes included LasI, RhlI, pqsH, pvdE, PepSY, speD, PA14_RS20905, and coA. […]

[2] = test system: lexA; assay: Pouch panel (+dsDNAse +RT) relative expression level of lexA after ciprofloxacin exposure; assay type: cell-based, Pseudomonas aeruginosa; details: 7.5 or 15 μg/mL ciprofloxacin, 10, 30 and 60 minutes, versus zero ciprofloxacin
Text: In this illustrative example, a pouch similar to pouch 510 was developed to include a DNase treatment step by including DNAse, illustratively a dsDNAse from Pandalus borealis, freeze dried into the fitment, as well as a slight modification in the elution buffer that is freeze dried into injection channel 515e, although it is understood that this dsDNAse is illustrative only and that other DNAses can be used, as well as other DNA removal methods. For the DNAse step, subsequent to elution, the temperature is raised to a temperature suitable for the DNAse enzyme, illustratively 42° C., followed by reverse-transcription and first-stage multiplex PCR. In this example, the pouch contained 45 different assays of interest (including control genes such as rpoD), targets where mRNA is present in concentrations greater than genomic (“high copy targets”) such as PA14_RS28865, as well as a number of antibiotic resistance gene targets including recA (specific) and lasI (generic) that are present in concentrations lower than genomic. However, it is understood that this panel of assays is illustrative only, and any combination of assays may be used. In one illustrative embodiment, all assays are for RNA targets, illustratively mRNA targets, although other RNA targets may be suitable for detection and/or quantification using the methods provided herein. […]

[3] = test system: lexA; assay: Benchtop RT-PCR Cp of lexA transcript, strains S1/R1 with ciprofloxacin; assay type: cell-based, P. aeruginosa; details: 15 μg/mL Ciprofloxacin for 10 minutes, cDNA 1:100 dilution
Method: as §1, §2
For other genes, significant ΔCp was found only in the presence of antibiotics. These “specific antibiotic resistance genes” include lexA, sulA, ptrB, and, PA14_RS07985, with ptrB showing up-regulation in the resistant strain. The amplification curves for lexA are shown in FIG. 5B, where the susceptible strain with antibiotic has a Cp about 2 cycles earlier than the other three conditions. For the other three conditions, the resistant strain with and without antibiotics had essentially the same Cp as the susceptible strain without antibiotics.

In the case of O=C(O)c1cn(C2CC2)c2cc(N3CCNCC3)c(F)cc2c1=O [Ciprofloxacin], the “Cp of lasI amplification curve” value ([1]; Resistant strain +ABX) is reported as 15.15, the “Cp of lasI amplification curve” value ([1]; Susceptible strain +ABX) is reported as 10.55 and the “relative expression of lexA (geometric mean normalized Cp)” value ([2]; resistant strain) is reported as “did not change”. For the same compound, the “relative expression of lexA (geometric mean normalized Cp)” value ([2]; susceptible strain) was “clear time dependent induction”, the “Cp of lexA amplification curve” value ([3]; Resistant strain +ABX) was 18.55 and the “Cp of lexA amplification curve” value ([3]; Susceptible strain +ABX) was 16.36.
